According to patent US10752675B2, “Compounds for treating the remyelination blockade in diseases associated with the expression of HERV-W envelope protein” (GENEURO S.A., priority 2012, dated 2020):
Entries after “also recorded” stand apart in the source; their conditions may differ. Structures can show the parent of a compound that is named as a salt.

Experiments:
[1] = system: MSRV-Env induced EAE in C57BL/6 mice; experiment: EAE clinical score, Example 3.A (EAE induced with MOG and MSRV-Env); format: in vivo; conditions: treatment from day 12 to day 29: GNbAc1 200 μg once, L-NAME 600 μg IP and SMT 1 mg IP every 4 days, DMF 1 mg daily in drinking water
Excerpt: Pathogen free female C57BL/6 nice (6-8 weeks old) were purchased from the Charles River laboratories and maintained at the animal facilities for one week before immunization. One day before immunization, all mice have been weighed, and then evaluated on the Rotarod Test. Rotarod:
(§1) Animals were weighed and clinically scored 5 days per week according to the following criteria: 0=no signs; 1=tail paralysis or hyper-reflex of hind limb(s) or unilateral hind limb weakness; 2=bilateral hind limb or forelimb weakness; 3=plus unilateral paralysis or major deficit; 4=complete hind limb or forelimb paralysis; 5=plus partial paralysis or major deficit of opposite limbs; 6=moribund or dead. These were adapted from standard criteria, in order to reflect the more rapid induction of brain and cervical cord lesions with this model.
(§2) All groups of 6 (six) mice have been first injected s.c. in the neck on day 0 then in the dorsal flanks on day 7 and 14; with 200 μg of MOG/mouse+60 μg of MSRV-Env+IFA.
(§3) For Groups G to H, the treatments with GNbAc1, L-NAME, SMT and DMF alone or together with GNbAc1 with the doses indicated below, have been initiated on day 12 post immunization when the progression of EAE clinical symptoms was already observed. GNbAc1 humanized antibody was administered once, but L-Name or SMT was administered every 4 days until termination of the study on day 29. Regarding Groups E and H, attributed for the treatment with DMF, we have previously determined the volume of daily water consumption by each mouse and it has been determined that (in our condition), each mouse consumed around 3.5 ml drinking water per day. Thus, on the basis of this measurement, a dose of 1 mg DMF+0.08% Methocel per mouse were added to 3.5 ml drinking water daily.
350 ng of pertussis toxin (PTX) per animal was injected (i.p.) in all groups on the same day following each immunogen injection, and replicated 2 days later, as usual in EAE protocols in order to facilitate the migration lymphocytes through the blood-brain barrier.

[2] = system: MSRV-Env induced EAE in C57BL/6 mice; experiment: Rotarod test, Example 3.A (MSRV-Env induced EAE); format: in vivo; conditions: Example 3.A doses, end of study period
Protocol: 9 and 8 days before immunization. Transfer of mice, in their home cages, from the holding room to the experimental room. Mice are habituated to the experimental room for 15 min. During the training period, each mouse was placed on the rotarod at a constant speed (4 rpm) if one mouse was falling, she was back on rotarod, when mice were comfortable on the rotarod, mice were running during 120 sec. All mice were returned to their cage, the speed was increased to 13 rpm and mice were again put on the rotarod for 120 sec. All mice were returned to their cage, the speed was increased to 19 rpm and mice were again put on the rotarod for 120 sec. The experimental-room environment were kept constant between test sessions with respect to temperature, and light intensity.
1 day before each immunization, mice were transferred in their home cages, from the holding room to the experimental room. Mice were habituated to the experimental room for 15 min. Mice then received two trials at 10 increasing speed levels, ranging from 7 to 40 rpm. Individual delays before falling off the rotarod (for the two trials at each speed level) was recorded until 60 sec. Thus, training and performance on the Rotarod system were determined for each animal.
The ROTAROD test results are expressed as kinetics of the mean of individual scores for each group with SEM indicated by bars, for each test day and for each test speed within the discriminating range for neuromotor impairment in present conditions (16 to 29 rpm).
They are calculated for each individual mouse, for each test day and for each speed value, as the relative gain or loss of time on Rotarod (before falling), compared to the first test day at the same speed (D-7, before starting the disease induction in relevant groups). The value is calculated as “Time on Rotarod at dayX”−“Time at Day-7 for the same mouse at the same speed”. Figures illustrate the kinetics for the different groups on the whole study period, for representative discriminative speed values when validated to differentiate ill from healthy animals in our conditions (e.g., too high or too low speed values either made healthy ones fall immediately or ill ones capable to sustain a slow movement).
as §2, §3

[3] = system: MSRV-Env induced EAE in C57BL/6 mice; experiment: EAE clinical score, Example 3.C (GNbAC1 and Sodium Fumarate); format: in vivo; conditions: from day 12: GNbAC1 500 μg IP; Sodium Fumarate 10 mg daily in 3.5 ml drinking water; versus isotype control antibody
Excerpt: as §1

rat OPCs [4] = experiment: 3-nitrotyrosine (3-NT) positive rat OPCs after Env stimulation (immunostaining); format: cell-based; conditions: for Env dependent formation of 3-NT positive OPCs after pre-incubation: 100 μM for 30 min at 37° C. prior to Env stimulation
Protocol: Rat oligodendrocyte Precursor Cells (OPCs) were purified as previously described^22. OPCs were either kept in proliferation medium (Sato medium supplemented with 10 ng/ml recombinant human basic fibroblast growth factor and 10 ng/ml recombinant human platelet-derived growth factor-AA; R&D Systems, Wiesbaden-Nordenstadt, Germany), whereas differentiation was initiated by Sato medium supplemented with 0.5% fetal calf serum. Human fetal oligodendrocyte precursor cells (hOPC) and respective media were purchased from 3H Biomedical, Uppsala, Sweden. Recombinant Env was produced and purified by PX-Therapeutics (Grenoble, France) according to QC specifications of GeNeuro (Geneva, Switzerland) that supplied the protein batches. Endotoxin levels were <5 EU/mL as measured by the limulus amebocyte lysate (LAL) test. Env stimulation was carried out using three different approaches using i) recombinant full length Env protein diluted in differentiation medium at 10 ng/ml, 100 ng/ml and 1000 ng/ml, ii) recombinant Env protein coated on cell culture dishes at a surface concentration of 17.53 ng/cm^2 and iii) by seeding OPCs on transfected U343 glioblastoma cells overexpressing Env, respectively. Control stimulation experiments were conducted using the recombinant Env buffer preparation (20 mM histidine, 5% (w/v) sucrose, 0.01% (w/v) polysorbate 20, pH 6.0) at equal dilutions. NO concentration measurements in OPC supernatants were performed using a colorimetric nitric oxide assay kit (Merck-Millipore/Calbiochem, Darmstadt, Germany) and the absorbance was determined at 540 nm using an Anthos plate reader 2001 (Anthos labtec instruments, Salzburg, Austria). OPC morphology assessment was carried out using an anti-04 antibody Merck-Millipore/Chemicon, Darmstadt, Germany) taking into account cell diameter and the degree of process branching. […]

rat OPCs [5] = experiment: Myelin protein (CNPase, MBP) expression of Env stimulated rat OPCs (immunostaining); format: cell-based; conditions: 100 μM in combination with surface bound recombinant Env for three days
Protocol: (§4) Rat oligodendrocyte Precursor Cells (OPCs) were purified as previously described^22. OPCs were either kept in proliferation medium (Sato medium supplemented with 10 ng/ml recombinant human basic fibroblast growth factor and 10 ng/ml recombinant human platelet-derived growth factor-AA; R&D Systems, Wiesbaden-Nordenstadt, Germany), whereas differentiation was initiated by Sato medium supplemented with 0.5% fetal calf serum. Human fetal oligodendrocyte precursor cells (hOPC) and respective media were purchased from 3H Biomedical, Uppsala, Sweden. Recombinant Env was produced and purified by PX-Therapeutics (Grenoble, France) according to QC specifications of GeNeuro (Geneva, Switzerland) that supplied the protein batches. Endotoxin levels were <5 EU/mL as measured by the limulus amebocyte lysate (LAL) test. […] NO concentration measurements in OPC supernatants were performed using a colorimetric nitric oxide assay kit (Merck-Millipore/Calbiochem, Darmstadt, Germany) and the absorbance was determined at 540 nm using an Anthos plate reader 2001 (Anthos labtec instruments, Salzburg, Austria). […]

rat OPCs [6] = experiment: NO concentration in OPC supernatants (colorimetric nitric oxide assay); format: cell-based; conditions: Env stimulated OPCs; data not shown
Protocol: as §4

rat OPCs [7] = experiment: iNOS expression in cultured rat OPCs stimulated with recombinant Env (quantitative RT-PCR); format: cell-based; conditions: 2 h pre-incubation (IRAK1/4 inhibitor I 3200 nM; TRIF inhibitory peptide 50 μM; anti-TLR4 antibody 15 μg/ml), then solid recombinant Env 8 h, GAPDH reference
Protocol: as §4, with “Recombinant Env was produced and purified by PX-Therapeutics (Grenoble, France) according to QC specifications of GeNeuro (Geneva, Switzerland) that supplied the protein batches.” left out
Transcription Polymerase Chain Reaction RNA purification from cultured cells was performed using the RNeasy procedure (Qiagen, Hilden, Germany). […] Quantitative determination of gene expression levels was performed on a 7900HT sequence detection system (Life Technologies/Applied Biosystems) using Power SybrGreen universal master mix (Life Technologies/Applied Biosystems). […]

## CSC(=N)N [SMT, S-methyl-isothiourea]
[1]
  EAE clinical score kinetics and recovery: irregular recovery; also recorded: lower recovery scores and kinetics than group B
[2]
  Time on Rotarod at 23 rpm relative to Day -7: improved kinetics and outcome

## O=C([O-])/C=C/C(=O)[O-].[Na+].[Na+] [Sodium Fumarate, reference compound]
[3]
  EAE clinical score kinetics and endpoint: did not reveal any significant clinical improvement; also recorded: bad outcome at the end of the study; also recorded: no effect

## COC(=O)[C@@H](N)CCCNC(=N)N[N+](=O)[O-] [L-NAME, L-N^G-nitroarginine methyl ester]
Rat OPCs [4]
  Env dependent formation of 3-NT positive OPCs after pre-incubation: significantly decreased; also recorded: reduced to control levels
Rat OPCs [5]
  MBP expression in Env stimulated OPCs (rescue of differentiation block): rescue MBP expression; also recorded: abolishment of the Env-mediated OPC differentiation block
Rat OPCs [6]
  NO production after pre-incubation with L-NAME: significantly decreased
[1]
  EAE clinical score kinetics and recovery: irregular recovery
[1]; listed as L-Name
  EAE clinical score kinetics and recovery: lower recovery scores and kinetics than group B
[2]
  Time on Rotarod at 26 rpm relative to Day -7: improved kinetics and outcome
  Time on Rotarod at 29 rpm relative to Day -7: improved kinetics and outcome

## COC(=O)/C=C/C(=O)OC [DMF, dimethyl fumarate]
[1]
  EAE clinical score kinetics and recovery: equivalent recovery at the end of the study

## CC(=O)NC(C(=O)O)C(C)(C)SN=O (racemic) [SNAP, S-Nitroso-N-acetyl-DL-penicillamine]
Rat OPCs [4]; SNAP 100 ng/ml
  3-NT positive OPCs, NO donor positive control: nitrotyrosinylation of almost all OPCs

## COC(=O)[C@H](N)CCCNC(=N)N[N+](=O)[O-] [D-NAME, D-N^G-nitroarginine methyl ester]
Rat OPCs [4]
  Env dependent formation of 3-NT positive OPCs after pre-incubation: not affected; also recorded: could not abolish the Env dependent 3-NT induction
Rat OPCs [5]
  MBP expression in Env stimulated OPCs (rescue of differentiation block): not and not able to rescue myelin expression

## O=C(Nc1nc2ccccc2n1CCN1CCOCC1)c1cccc([N+](=O)[O-])c1 [IRAK-1/4 inhibitor I, 1-(2-(4-Morpholinyl)ethyl)-2-(3-nitrobenzoylamino)benzimidazole]
Rat OPCs [7]
  iNOS expression in presence of Env after pre-incubation with inhibitor: significantly decreased iNOS expression levels
Rat OPCs [7]; listed as IRAK1/4 inhibitor I
  iNOS expression in presence of Env after pre-incubation with inhibitor: Reduction of iNOS expression
